Assay results as given in patent publication US7795225B2, “Anti-chrondrosarcoma compounds” (priority 2003, dated 2010).
Entries after “also recorded” stand apart in the source; their conditions may differ. Where no end group is shown, it is not given here.

Experiments:
[1] = system: Human chondrosarcoma cells (SW1351); experiment: Chondrosarcoma cell proliferation (CellTiter 96 Aqueous One, absorbance 490 nm); assay type: cell-based
Method: Human chondrosarcoma cells (SW1351) were purchased from the American Type Culture Collection (ATCC No. HTB-94). A frozen vial of cells was thawed by gentle agitation in a 37° C. water bath for about 2 minutes. The vial was decontaminated with 70% ethanol and the cells were transferred to a T75 flask containing pre-wanned Leibovitz's L-15 medium (ATCC Catalog No. 30-2008) with 10% fetal bovine serum. The culture as incubated at 37° C. until 80% confluence. The culture medium was removed and the cells were dissociated from the T75 flask using 3 ml 0.25% trypsin, 0.03 mM EDTA at 37° C. After incubation for 5 minutes, 8 ml culture medium was added to stop trypsinization. The cells were counted with trypan blue and then seeded in 96 well plates at a density of about 2500 cells/well.
Six separate cell cultures were tested at each concentration of each peptide (n=6). Control cells received culture medium only.
Cell cultures were then incubated at 37° C. in an atmosphere of 5% CO2. Cell proliferation was determined after 18 or 72 hr by using the CellTiter 96 Aqueous One Solution purchased from Promega (Catalog No. TB245). Briefly, the CellTiter solution was warmed up to room temperature. Twenty microliters of the solution was added to each well. Cells were incubated at 37° C. for 1-2 hours. The absorbance at 490 nm was then recorded using a 96 well plate reader. The data were statistically analyzed using a Student T test. Differences were considered significant at the level of p<0.05.

[2] = molecular target: pro-MMP-9 (Homo sapiens, UniProt P14780); experiment: Anti-activation (anti-splicing) assay: conversion of pro-MMP-9 by stromilysin, HPLC; assay type: biochemical; details: 0.5 and 1.0 μM peptide, FIG. 12
Method: The assay measured how much proenzyme was converted into mature matrix metalloproteinase. Proenzyme pro-MMP-9 (100 μg) was mixed with 0.5 μg of stromilysin in PBS. The reaction was incubated at 35° C. Aliquots were removed from the reaction over an 80 minute time course. […] The zero (injection) time point was a single peak that elutes from the column in approximately 750 seconds. This peak reduced in size as a function of time, and two new peaks appeared. The first peak eluted at approximately 800 seconds, and represented the mature form of MMP-9. The second peak eluted at approximately 1100 seconds, and corresponded to the N-terminal pro-domain fragment. Peak areas were determined by integrating over the elution profile, and the percent area changes were plotted.
The first peak, eluting at approximately 700 seconds, is pro-MMP-9. As the splicing reaction proceeds, this peak decreases in intensity (as marked with the downwards arrow), and two new peaks appear. The first new peak, eluting at approximately 800 seconds, is mature and active MMP-9. The second new peak, eluting at approximately 1050 seconds, is the prodomain. As the splicing reaction proceeds, the intensity of these two peaks increases (as marked with the upwards arrows). When the reaction is complete, there is no detectable pro-MMP-9 remaining.

[3] = system: C57BL6/KsJ db/db mice; experiment: Wound healing in db/db diabetic mice; assay type: in vivo; details: single dose 5 μL of 20 μg/mL at day zero, saline control 14 days
Description: Wounds were created in C57BL6/KsJ db/db mice with a 4 mm biopsy punch. The mice were obtained from The Jackson Laboratories and were aged 3-7 months before the onset of the wounding protocol. All mice were anesthetized prior to wounding. Two wounds were introduced onto the upper back of each animal by pulling the skin away from underlying structures and pushing the punch through the isolated skin. Typically, wounds were created to an average depth of 1.7 mm, with a range of 1.3 to 2.2 mm. No muscle involvement occurred during the course of wounding.
Each day the wounds were digitally photographed and wound areas were determined by computer integration of the photographs. All wound treatments and the subsequent data analyses were performed in a blind manner (see e.g., Brown et al., 1994). Wound area at the time of wounding (day 0) was arbitrarily set to a relative value of 1 for all wounds; such that subsequent wound areas were converted to relative wound areas by dividing the wound area at day n by the wound area at day zero.

[4] = molecular target: T1, MMP-9 (Homo sapiens, UniProt P14780); experiment: Fluoresceinated collagen hydrolysis assay (fluorescein release); assay type: biochemical; details: extended time assay, FIG. 8
T1 construct: Active MMP-9 enzyme was purchased from Calbiochem; purchased Calbiochem
Method: Two enzymatic assays were performed. The first assay measured the enzymatic hydrolysis of fluoresceinated collagen by MMP-9 as a function of time. […] The protein mixture was added to the collagen substrate, and was quickly mixed. Fluorescence emission intensity at 520 nm was measured as a function of time (excitation wavelength 495 nm) in a Shimadzu RF5301 fluorimeter (Lakowicz, 1983). The fluorescein release assay was used to determine the inhibitory constant (Ki) of the peptide inhibitor ([I]) according to Segel (1993) via the use of Dixon plots (1/v vs. [I]), such that: slope=Km /(V max Ki [S]) (1) where Km is the Michaelis constant, Vmax is the reaction maximum velocity, and [S] is the substrate concentration.

pro-MMP-9, sequence (P14780 20-707): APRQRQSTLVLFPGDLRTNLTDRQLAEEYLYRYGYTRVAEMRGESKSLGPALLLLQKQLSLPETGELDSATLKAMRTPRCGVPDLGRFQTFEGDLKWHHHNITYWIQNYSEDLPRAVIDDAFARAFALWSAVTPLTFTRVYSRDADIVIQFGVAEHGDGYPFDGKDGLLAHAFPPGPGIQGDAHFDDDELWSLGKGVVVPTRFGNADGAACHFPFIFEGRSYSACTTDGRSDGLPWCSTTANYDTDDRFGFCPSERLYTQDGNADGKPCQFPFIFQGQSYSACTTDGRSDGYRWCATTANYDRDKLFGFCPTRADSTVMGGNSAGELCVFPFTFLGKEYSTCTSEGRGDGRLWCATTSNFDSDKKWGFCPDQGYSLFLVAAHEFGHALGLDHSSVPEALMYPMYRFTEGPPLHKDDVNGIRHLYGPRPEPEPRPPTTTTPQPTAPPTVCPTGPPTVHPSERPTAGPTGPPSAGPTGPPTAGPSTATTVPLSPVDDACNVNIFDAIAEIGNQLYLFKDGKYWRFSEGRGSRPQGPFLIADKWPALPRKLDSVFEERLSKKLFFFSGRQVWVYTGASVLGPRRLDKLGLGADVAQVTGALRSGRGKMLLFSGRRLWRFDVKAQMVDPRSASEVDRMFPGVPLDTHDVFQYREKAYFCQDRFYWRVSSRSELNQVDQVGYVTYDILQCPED
T1 sequence (P14780 107-707 limits assumed): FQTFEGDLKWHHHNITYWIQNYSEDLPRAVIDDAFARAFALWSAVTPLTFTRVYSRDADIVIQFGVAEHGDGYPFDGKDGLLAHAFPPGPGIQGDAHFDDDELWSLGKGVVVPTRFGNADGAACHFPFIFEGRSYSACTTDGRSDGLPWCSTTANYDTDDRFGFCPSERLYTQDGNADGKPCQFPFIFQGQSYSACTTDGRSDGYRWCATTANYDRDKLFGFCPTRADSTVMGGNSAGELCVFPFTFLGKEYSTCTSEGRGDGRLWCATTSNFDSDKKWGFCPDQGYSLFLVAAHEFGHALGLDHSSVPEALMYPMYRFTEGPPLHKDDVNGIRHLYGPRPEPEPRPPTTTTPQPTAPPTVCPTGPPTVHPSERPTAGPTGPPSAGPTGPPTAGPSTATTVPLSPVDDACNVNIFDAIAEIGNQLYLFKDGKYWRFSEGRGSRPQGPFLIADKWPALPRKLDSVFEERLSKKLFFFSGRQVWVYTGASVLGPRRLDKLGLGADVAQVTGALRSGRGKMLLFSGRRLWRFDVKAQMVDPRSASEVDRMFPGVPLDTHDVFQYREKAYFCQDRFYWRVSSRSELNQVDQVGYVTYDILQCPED

Molecule	chondrosarcoma cell proliferation vs untreated cells ([1]; 18 hr, three concentrations tested (10^−6, 10^−5, 10^−4 M))	chondrosarcoma cell proliferation vs untreated cells ([1]; 72 hours, 10^−4 M, p<0.05)	inhibition of splicing (conversion of pro-MMP-9 into prodomain and active enzyme) [2]	time to full wound closure post wounding [3]	period of time of effective inhibition of MMP-9 catalyzed hydrolysis of collagen [4]	chondrosarcoma cell proliferation vs untreated cells ([1]; 18 hours, 10^−4 M, p<0.05)	chondrosarcoma cell proliferation vs untreated cells ([1]; 72 hours, 10^−5 M, p<0.05)
NYNFFPRKPK [10-mer]	did not show any significant effect	substantially less					
CC(C)[C@H](NC(=O)[C@H](CC(=O)O)NC(=O)[C@@H]1CCCN1C(=O)[C@H](CC(N)=O)NC(=O)CNC(=O)[C@H](CS)NC(=O)[C@H](CCCNC(=N)N)NC(=O)[C@@H]1CCCN1)C(=O)N[C@@H](C)C(=O)N[C@@H](CC(N)=O)C(=O)N[C@@H](Cc1ccc(O)cc1)C(=O)N[C@@H](CC(N)=O)C(=O)N[C@@H](Cc1ccccc1)C(=O)N[C@@H](Cc1ccccc1)C(=O)N1CCC[C@H]1C(=O)N[C@@H](CCCNC(=N)N)C(=O)N[C@@H](CCCCN)C(=O)N1CCC[C@H]1C(=O)N[C@@H](CCCCN)C(=O)O [19-mer]		substantially less	inhibited in a dose dependent manner	9 days	> 1000 min	significantly inhibits or depresses growth; also recorded: significantly inhibited	
PRCGNPDVA [9-mer]		substantially less				significantly inhibits or depresses growth; also recorded: significantly inhibited	significantly reduced
